Assays:
[1] = design: method as in PMID 30236787; details: vs NHE; cited from earlier work
[2] = tested on: MRC-5 normal embryonal lung fibroblasts; assay: MTT cytotoxicity assay, MRC-5; details: read-out: IC50 MRC-5, 10^4 cells, 72 h exposure, nontumoral fibroblasts
Experimental: (§1) Cells were grown as monolayers in 75 cm^2 culture flasks (Starlab, Hamburg, Germany) at 37 °C in a humidified atmosphere containing 5% CO2.
(§2) The cytotoxic activity of the compounds was determined by the 3-(4,5-dimethylthiazol-2-yl)-2,5-diphenyl-2H-tetrazolium bromide (MTT) assay (obtained from Acros Organics, Geel, Belgium) in at least three independent experiments. […] Furthermore, 1 × 10^4 cells of Colo205, Colo320, and MCF-7 as well as MRC-5 were seeded overnight prior to the assay with 72 h exposure to the compounds tested. […] In the case of the metal complexes, we first mixed the ligand and the aqueous metal salt solution (c = 10 mM) in the appropriate ratio followed by dilution with the medium. The metal salts dissolved in the same way were also tested.
(§3) MTT assays with the cell lines Colo205, Colo320, MCF-7, and MRC-5 were performed after addition of the substances and a subsequent 72 h incubation time. At the end of the incubation period, 20 μL of the MTT solution (from a stock solution of 5 mg/mL) was added to each well. After the staining, the plates were incubated at 37 °C for 4 h, then 100 μL of SDS solution (10% in 0.01 M HCI) was added to each well, and the plates were incubated at 37 °C overnight. The optical density (OD) was determined at 540/630 nm with a Multiscan EX ELISA reader (Thermo Labsystems).
(§4) The IC50 values, i.e., the concentrations resulting in half the number of viable cells relative to untreated controls, were interpolated from concentration–effect curves of at least three independent experiments.

[3] = tested on: SW480 colon carcinoma cells; assay: MTT cytotoxicity assay, SW480; details: read-out: IC50 SW480, 2 × 10^3 cells, 96 h exposure
Experimental: (§5) CH1/PA-1 (provided by L.R. Kelland, CRC Centre for Cancer Therapeutics, Institute of Cancer Research, Sutton, UK; confirmed by STR profiling as PA-1 ovarian teratocarcinoma cells at Multiplexion, Heidelberg, Germany), SW480 colon carcinoma, and A549 non-small-cell lung cancer cells (both obtained from the American Type Culture Collection, Manassas, VA, USA) were maintained in a minimal essential medium (MEM) supplemented with 1 mM sodium pyruvate, 4 mM L-glutamine, 1% (v/v) nonessential amino acids from 100-fold stock (all purchased from Sigma-Aldrich), and 10% heat-inactivated fetal bovine serum (FBS; BioWest, Nuaillé, France).
as §1
(§6) The cytotoxic activity of the compounds was determined by the 3-(4,5-dimethylthiazol-2-yl)-2,5-diphenyl-2H-tetrazolium bromide (MTT) assay (obtained from Acros Organics, Geel, Belgium) in at least three independent experiments. A total of 1 × 10^3 CH1/PA-1, 2 × 10^3 SW480, and 3 × 10^3 A549 cells were seeded at 100 μL per well into 96-well microculture plates (Starlab, Hamburg, Germany) 24 h before a treatment with the test compounds for a period of 96 h. […] In the case of the metal complexes, we first mixed the ligand and the aqueous metal salt solution (c = 10 mM) in the appropriate ratio followed by dilution with the medium.
(§7) CH1/PA-1, SW480, and A549 cells were treated with 100 μL/well of the test compounds serially diluted in complete MEM. […] After 4 h incubation, the MTT-containing medium was replaced with 150 μL DMSO per well to dissolve the formazan product formed by viable cells.
as §4

[4] = tested on: Colo205 colon adenocarcinoma cells; assay: MTT cytotoxicity assay, Colo205; details: read-out: IC50 Colo205, 10^4 cells, 72 h exposure
Experimental: as §1, §2, §3, §4

[5] = tested on: Colo320 (doxorubicin-resistant) colon adenocarcinoma cells; assay: MTT cytotoxicity assay, Colo320; details: read-out: IC50 Colo320, 10^4 cells, 72 h exposure
Experimental: as §1, §2, §3, §4

[6] = tested on: A549 non-small-cell lung cancer cells; assay: MTT cytotoxicity assay, A549; details: read-out: IC50 A549, 3 × 10^3 cells, 96 h exposure
Experimental: as §5, §1, §6, §7, §4

[7] = tested on: MCF-7 breast cancer cells; assay: MTT cytotoxicity assay, MCF-7; details: read-out: IC50 MCF-7, 10^4 cells, 72 h exposure
Experimental: as §1, §2, §3, §4

[8] = tested on: CH1/PA-1 ovarian teratocarcinoma cells; assay: MTT cytotoxicity assay, CH1/PA-1; details: read-out: IC50 CH1/PA-1, 10^3 cells, 96 h exposure
Experimental: as §5, §1, §6, §7, §4

| Structure (SMILES) | redox potential of the Fe(III)/Fe(II) complexes of the ligand [1] | IC50 [2] [µM] | IC50 [3] [µM] | IC50 [4] [µM] | IC50 [5] [µM] | IC50 [6] [µM] | IC50 [7] [µM] | IC50 [8] [µM] |
| --- | --- | --- | --- | --- | --- | --- | --- | --- |
| c1cnc2c(c1)ccc1cccnc12 [1,10-phenantroline] | +1130 mV |  |  |  |  |  |  |  |
| c1ccc(-c2ccccn2)nc1 [2,2-bipiyridine] | +1100 mV |  |  |  |  |  |  |  |
| [Cl][Cu][Cl] [CuCl2] |  | > 10 | 154 ± 21 | > 10 | > 10 | 142 ± 16 | > 10 | 28 ± 5 |
| [Cl][Fe]([Cl])[Cl] [FeCl3] |  | > 10 | > 200 | > 10 | > 10 | > 200 | > 10 | > 200 |
| [Cl-].[Cl-].[Zn+2] [ZnCl2] |  | > 10 | 125 ± 16 | > 10 | > 10 | 123 ± 9 | > 10 | 66 ± 3 |
| O=C(O)c1ccc(-n2nc(-c3ccccc3O)nc2-c2ccccc2O)cc1 [deferasirox] | −400 mV |  |  |  |  |  |  |  |
| Cc1c(O)c(=O)ccn1C [deferiprone] | −620 mV |  |  |  |  |  |  |  |
| CC(=O)N(O)CCCCCNC(=O)CCC(=O)N(O)CCCCCNC(=O)CCC(=O)N(O)CCCCCN [deferoxamine B] | −450 mV |  |  |  |  |  |  |  |
